{"source": "patent US20200407674A1", "about": "“CELL HOLDING AND TRANSPORTING DEVICE” (Stem Cell & Device Laboratory, Inc., priority 2018, published 2020)", "tested_on": "human iPS cell-derived cardiac myocytes", "assay": "Extracellular potential of cultured cardiac myocytes measured with MEA probe using device 1700", "format": "cell-based", "conditions": "dofetilide 0.0003, 0.001, 0.003 μM vs DMSO alone; MEA probe (MED64 System); FIG. 23", "excerpt": "The method of using the device for retaining and transporting cells 1700 when measuring cell characteristics is described here by taking an example of measuring an extracellular potential generated by cell activity of cardiac myocytes that is formed in the device for retaining and transporting cells 1700. An MEA (Multi-Electrode Array) probe P is used for measuring the extracellular potential. The MEA probe P is a device for measuring the extracellular potential generated by cellular activity. […] The substrate PB has a thin plate shape, and the molten wall PW is formed on the substrate PB. The melted wall PW has a cylindrical shape with one end open, and stores a medium inside, forming a cell arrangement space PS for placing the cells to be tested. […] The extracellular potential of the cultured cardiac myocytes was measured using the device 1700 that is formed using polycarbonate and that has a base 1701 (diameter: 6 mm, thickness: 0.7 mm), a through hole 1703 (diameter: 1.5 mm), a cell culture holding part 105 made of an oriented fiber sheet with a pitch of 10 μm, a manipulating part 1707, and the air vent section 1711, and the MEA probe P (MED64 System, Alpha MED Scientific Inc.). […] The drug response of the cultured cardiac myocytes can be measured by means of the extracellular potential by changing the conditions of the drug to be administered to the cultured cardiac myocytes. […]", "data": [{"smiles": "CN(CCOc1ccc(NS(C)(=O)=O)cc1)CCc1ccc(NS(C)(=O)=O)cc1", "note": "[dofetilide, Dofetilide]", "values": [{"measurement": "time required from the first peak potential to the second peak potential", "value": "prolonged depending on the concentration"}]}]}
